Key:
[1] = biological target: Urokinase-type plasminogen activator (Homo sapiens, UniProt P00749); experiment: Inhibition of uPA
Plasminogen = Plasminogen (Homo sapiens, UniProt P00747); experiment: Inhibition of plasmin
[2] = biological target: Tissue-type plasminogen activator (Homo sapiens, UniProt P00750); experiment: Inhibition of tPA
[3] = Half life in rat; format: ADME, organism-based; details: in vivo
[4] = Clearance in rat; format: ADME, organism-based; details: in vivo
[5] = Oral bioavailability in rat; format: ADME, organism-based; details: in vivo
[6] = Volume of distribution in rat; format: ADME, organism-based; details: in vivo
[7] = Cmax in rat; format: ADME, organism-based; details: in vivo

Sequence of Plasminogen (P00747 97-580 limits assumed): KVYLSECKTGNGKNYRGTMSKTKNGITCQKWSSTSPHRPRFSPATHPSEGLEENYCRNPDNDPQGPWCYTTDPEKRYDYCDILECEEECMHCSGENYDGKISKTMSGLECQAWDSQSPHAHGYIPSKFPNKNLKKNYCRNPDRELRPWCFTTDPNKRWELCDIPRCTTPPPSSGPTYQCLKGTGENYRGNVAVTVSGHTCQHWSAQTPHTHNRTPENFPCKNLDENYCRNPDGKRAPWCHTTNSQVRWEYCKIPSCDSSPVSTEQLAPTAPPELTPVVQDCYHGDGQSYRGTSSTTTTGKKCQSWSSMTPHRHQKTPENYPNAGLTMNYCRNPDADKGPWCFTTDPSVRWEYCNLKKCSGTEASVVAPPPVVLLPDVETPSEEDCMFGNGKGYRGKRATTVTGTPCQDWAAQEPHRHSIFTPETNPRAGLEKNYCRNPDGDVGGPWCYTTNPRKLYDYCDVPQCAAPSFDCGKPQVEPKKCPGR
Sequence of Plasminogen (P00747 581-810 limits assumed): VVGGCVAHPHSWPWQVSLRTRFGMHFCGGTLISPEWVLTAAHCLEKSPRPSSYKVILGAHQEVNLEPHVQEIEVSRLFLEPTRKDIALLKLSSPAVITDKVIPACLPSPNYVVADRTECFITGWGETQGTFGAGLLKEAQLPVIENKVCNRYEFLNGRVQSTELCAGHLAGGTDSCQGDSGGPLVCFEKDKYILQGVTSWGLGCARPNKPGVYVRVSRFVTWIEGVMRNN
Sequence of Tissue-type plasminogen activator (P00750 whole entry): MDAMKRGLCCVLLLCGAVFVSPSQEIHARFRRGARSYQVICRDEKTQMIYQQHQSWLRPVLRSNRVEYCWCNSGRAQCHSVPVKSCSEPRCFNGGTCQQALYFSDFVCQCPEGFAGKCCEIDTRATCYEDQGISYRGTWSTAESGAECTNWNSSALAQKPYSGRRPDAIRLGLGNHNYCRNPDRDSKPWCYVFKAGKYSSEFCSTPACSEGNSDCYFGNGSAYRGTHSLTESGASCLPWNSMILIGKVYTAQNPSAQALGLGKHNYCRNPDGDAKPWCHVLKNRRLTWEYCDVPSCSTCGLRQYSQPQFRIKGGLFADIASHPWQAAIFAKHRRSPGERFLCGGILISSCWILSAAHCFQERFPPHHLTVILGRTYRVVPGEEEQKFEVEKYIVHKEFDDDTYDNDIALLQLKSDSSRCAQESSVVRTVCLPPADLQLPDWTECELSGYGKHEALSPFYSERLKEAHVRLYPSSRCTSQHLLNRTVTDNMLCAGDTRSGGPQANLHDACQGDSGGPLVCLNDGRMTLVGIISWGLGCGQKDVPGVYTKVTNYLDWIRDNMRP

IC50 [1] [µM] | IC50 (Plasminogen) [µM] | IC50 [2] [µM] | SMILES | also measured
> 30 |  |  | NCc1cccc(-c2cccc(Oc3nc(Oc4ccccc4CCC(=O)O)c(F)cc3F)c2)c1 | 
> 30 |  |  | Cc1ccc(C(=O)O)c(Oc2nc(Oc3ccc(N)c(-c4cccc(CN)c4)c3)c(F)cc2F)c1 | 
26 |  |  | Cc1cccc(Oc2nc(Oc3cccc(-c4cccc(CN)c4)c3)c(F)cc2F)c1C(=O)O | 
0.13 | 3.6 | 16 | CNc1c(F)c(Oc2cccc(-c3cccc(CN)c3)c2)nc(Oc2cc(N(C)C)ccc2C(=O)O)c1F | 
0.098 | 2.1 | 3.9 | Cc1c(F)c(Oc2cccc(-c3cccc(C(=N)N)c3)c2)nc(Oc2cc(N(C)C)ccc2C(=O)O)c1F | 
0.065 | 4.4 | 11 | CN(C)c1ccc(C(=O)O)c(Oc2nc(Oc3cccc(-c4cccc(CN)c4)c3)c(F)c(N3CCNCC3)c2F)c1 | 
0.53 | 2.9 | > 30 | CN(C)c1ccc(C(=O)O)c(Oc2nc(Oc3cccc(-c4cccc(CN)c4)c3)c(F)c(N(C)C)c2F)c1 | 
8.1 |  |  | NCc1cccc(-c2cccc(Oc3nc(Oc4ccccc4CC(=O)O)c(F)cc3F)c2)c1 | 
> 30 |  |  | NCc1cccc(-c2cccc(Oc3nc(Oc4ccc(C(=O)O)cc4)c(F)cc3F)c2)c1 | 
 | 1.9 | 5.2 | CN(C)c1ccc(C(=O)O)c(Oc2nc(Oc3cccc(-c4cccc(CN)c4)c3)c(F)c(N3CCC(N(C)C)C3)c2F)c1 (stereo unspecified) | half-life [3]: 276 min; clearance [4]: 5 mL/min/kg; bioavailability [5]: 0%; Vd [6]: 1 L/kg
0.023 | 5.5 | 14 | Cc1ccc(C(=O)O)c(Oc2nc(Oc3cc(O)cc(-c4cccc(CN)c4)c3)c(F)cc2F)c1 | 
0.089 | 11 | 15 | Cc1ccc(C(=O)O)c(Oc2nc(Oc3cc(-c4cccc(CN)c4)ccc3N)c(F)cc2F)c1 | 
3.5 |  |  | Cc1ccc(Oc2nc(Oc3cccc(-c4cccc(CN)c4)c3)c(F)cc2F)c(C(=O)O)c1 | 
13 |  |  | Cc1ccc(-n2cnnn2)c(Oc2nc(Oc3cccc(-c4cccc(CN)c4)c3)c(F)cc2F)c1 | 
0.24 | 5 | 22 | Cc1ccc(C(=O)O)c(Oc2nc(Oc3cccc(-c4cccc(CN)c4)c3)c(F)cc2F)c1 | half-life [3]: 30 min; clearance [4]: 54 mL/min/kg; Cmax [7]: 220 ng/mL; bioavailability [5]: 37%; Vd [6]: 0.7 L/kg
> 30 |  |  | CN(C)Cc1cccc(-c2cccc(Oc3nc(Oc4cc(N(C)C)ccc4C(=O)O)c(F)cc3F)c2)c1 | 
0.68 | 2.8 |  | CC(C)c1ccc(C(=O)O)c(Oc2nc(Oc3cccc(-c4cccc(CN)c4)c3)c(F)cc2F)c1 | 
0.54 | 8.6 |  | Cc1cccc(C(=O)O)c1Oc1nc(Oc2cccc(-c3cccc(CN)c3)c2)c(F)cc1F | 
0.1 | 6.5 | 18 | CN(C)c1ccc(C(=O)O)c(Oc2nc(Oc3cccc(-c4cccc(CN)c4)c3)c(F)cc2F)c1 | half-life [3]: 30 min; clearance [4]: 26 mL/min/kg; Cmax [7]: 33 ng/mL; bioavailability [5]: 9%; Vd [6]: 1.15 L/kg
0.84 | 21 | > 30 | NCc1cccc(-c2cccc(Oc3nc(Oc4ccccc4C(=O)O)c(F)cc3F)c2)c1 | 
> 30 |  |  | CN(C)c1ccc(C(=O)O)c(Oc2nc(Oc3cccc(-c4ccc(CN)cc4)c3)c(F)cc2F)c1 | 
0.039 | 5 | > 30 | Cc1ccc(C(=O)O)c(Oc2nc(Oc3cc(N)cc(-c4cccc(CN)c4)c3)c(F)cc2F)c1 | half-life [3]: 15.6 min; clearance [4]: 257 mL/min/kg; Cmax [7]: 59 ng/mL; bioavailability [5]: 18%; Vd [6]: 4.6 L/kg
> 30 |  |  | CNCc1cccc(-c2cccc(Oc3nc(Oc4cc(N(C)C)ccc4C(=O)O)c(F)cc3F)c2)c1 | 
1.3 |  |  | NCc1cccc(-c2cccc(Oc3nc(Oc4cc([N+](=O)[O-])ccc4C(=O)O)c(F)cc3F)c2)c1 | 
0.1 | 6.3 | 28 | CN(C)CCN(C)c1c(F)c(Oc2cccc(-c3cccc(CN)c3)c2)nc(Oc2cc(N(C)C)ccc2C(=O)O)c1F | 
20 |  |  | NCc1cccc(-c2cccc(Oc3nc(Oc4cccc(C(=O)O)c4)c(F)cc3F)c2)c1 | 
2.7 | 2.7 |  | Cc1ccc(C(=O)O)c(Oc2nc(Oc3cc(CN)cc(-c4cccc(CN)c4)c3)c(F)cc2F)c1 | 
0.22 | 9.4 | > 30 | COc1ccc(C(=O)O)c(Oc2nc(Oc3cccc(-c4cccc(CN)c4)c3)c(F)cc2F)c1 | 

SMILES | IC50 [1] [µM] | IC50 (Plasminogen) [µM] | IC50 [2] [µM] | also measured
CN(C)c1ccc(C(=O)O)c(Oc2nc(Oc3cccc(-c4cccc(CN)c4)c3)c(F)c(N3CCOCC3)c2F)c1 | 0.9 | 2.1 | 10 | 
Cc1ccc(C(=O)O)c(Oc2nc(Oc3cc(N)cc(-c4cccc(CN)c4)c3)c(F)c(N3CCC(N(C)C)C3)c2F)c1 (stereo unspecified) | 0.015 | 3 | 8.5 | 

Source: ChEMBL document CHEMBL1156011, “Identification of orally bioavailable, non-amidine inhibitors of Urokinase Plasminogen Activator (uPA)” (Bioorg Med Chem Lett, 2009)
